Data: US20080242878A1, “Semi-Synthetic Taxane Derivatives With Antitumor Activity” (priority 2005, published 2008)

How the values were obtained:
MCF7/R = experiment: Cytotoxicity, SRB test, 72 h exposure, MCF7/R (resistant cells); conditions: for IC50: Homo sapiens, MCF7R, 72 h, read-out: Cytotoxicity (IC50 (nM) 72 h exposure of cells to compound ± SE (SRB test) MCF7/R); for RI (cross-resistance index): IC50 MCF7/R versus IC50 MCF7
MCF7 = experiment: Cytotoxicity, SRB test, 72 h exposure, MCF7; conditions: Homo sapiens, MCF7, 72 h, read-out: Cytotoxicity (IC50 (nM) 72 h exposure of cells to compound ± SE (SRB test) MCF7)

Row | Compound | IC50 (MCF7/R) [nM] | RI (cross-resistance index) (MCF7/R) | IC50 (MCF7) [nM]
1 | CO/C1=C(\C)C([C@]2(OC(C)=O)CO[C@@H]2CCOCSC)[C@H](OC(=O)c2ccccc2)[C@]2(O)C[C@H](OC(=O)[C@H](O)[C@H](CC(C)C)NC(=O)OC(C)(C)C)C(C)=C(C1=O)C2(C)C (stereo partly drawn) [Ex. 2, 13-(N-Boc-β-isobutyl-isoserinoyl)-9-O-methyl-7-O-methylthiomethyl-C7,8-seco-10-deacetylbaccatin III] | 558 ± 28 | 5.4 | 103 ± 13
2 | CO/C1=C(\C)C([C@]2(OC(C)=O)CO[C@@H]2CCO)[C@H](OC(=O)c2ccccc2)[C@]2(O)C[C@H](OC(=O)[C@H](O)[C@H](CC(C)C)NC(=O)OC(C)(C)C)C(C)=C(C1=O)C2(C)C (stereo partly drawn) [Ex. 3, 13-(N-Boc-β-isobutyl-isoserinoyl)-9-O-methyl-C7,8-seco-10-deacetylbaccatin III] | 945 ± 40 | 25 | 38 ± 3.9
3 | CSCOCC[C@H]1OC[C@@]1(OC(C)=O)C1/C(C)=C(/O)C(=O)C2=C(C)[C@@H](OC(=O)[C@H](O)[C@H](CC(C)C)NC(=O)OC(C)(C)C)C[C@@](O)([C@H]1OC(=O)c1ccccc1)C2(C)C (stereo partly drawn) [Ex. 4, 13-(N-Boc-β-isobutylisoserinoyl)-7-O-methylthiomethyl-C7,8-seco-10-deacetylbaccatin III] | 501 ± 41 | 19 | 26 ± 2.1
4 | CSCOCC[C@H]1OC[C@@]1(OC(C)=O)C1/C(C)=C(/OCSC)C(=O)C2=C(C)[C@@H](OC(=O)[C@H](O)[C@H](CC(C)C)NC(=O)OC(C)(C)C)C[C@@](O)([C@H]1OC(=O)c1ccccc1)C2(C)C (stereo partly drawn) [Ex. 5, 13-(N-Boc-β-isobutylisoserinoyl)-7,9-O-bis(methylthiomethyl)-C7,8-seco-10-deacetylbaccatin III] | 333 ± 23 | 5.7 | 58 ± 5.9
5 | CO/C1=C(\C)C([C@]2(OC(C)=O)CO[C@@H]2CCOC(C)=O)[C@H](OC(=O)c2ccccc2)[C@]2(O)C[C@H](OC(=O)[C@H](O)[C@H](CC(C)C)NC(=O)OC(C)(C)C)C(C)=C(C1=O)C2(C)C (stereo partly drawn) [Ex. 6, 13-(N-Boc-β-isobutylisoserinoyl)-9-O-methyl-7-O-acetyl-C7,8-seco-10-deacetylbaccatin III] | 747 ± 45 | 11 | 66 ± 5.4
6 | COCC[C@H]1OC[C@@]1(OC(C)=O)C1/C(C)=C(/OC)C(=O)C2=C(C)[C@@H](OC(=O)[C@H](O)[C@H](CC(C)C)NC(=O)OC(C)(C)C)C[C@@](O)([C@H]1OC(=O)c1ccccc1)C2(C)C (stereo partly drawn) [Ex. 7, 13-(N-Boc-β-isobutylisoserinoyl)-7,9-of-O-methyl-C7,8-seco-10-deacetylbaccatin III] | 168 ± 9.5 | 6.6 | 25.5 ± 2.6
7 | CC(=O)O[C@@]1(C2/C(C)=C(/O)C(=O)C3=C(C)[C@@H](OC(=O)[C@H](O)[C@H](CC(C)C)NC(=O)OC(C)(C)C)C[C@@](O)([C@H]2OC(=O)c2ccccc2)C3(C)C)CO[C@@H]1CCO (stereo partly drawn) [IDN 5390, reference compound] | 1040 ± 93 | 93 | 11.2 ± 0.81
